According to paper PMC3914656 (Journal of cancer science & therapy, 2013):
Counter-ions that a name gives are not always drawn.

Legend:
[1] = tested on: p-gp; test: qRT-PCR gene expression of p-gp in treated Caco-2 cells; type: cell-based; settings: for expression of p-gp (qRT-PCR): Caco-2 cells, 24-hrs treatment, actin as control
[2] = Stability in perfusion solution; type: physicochemical; settings: Phosphate Buffer Saline pH 7.4 with phenol red, room temperature, 6 hrs, RP-HPLC
[3] = Rat in-situ single-pass colon perfusion, effective permeability coefficient; settings: N-Nitroso N-methyl urea induced colon cancer, Figure 3

SMILES | expression of p-gp (qRT-PCR) [1] | stability in perfusion samples [2] | permeability coefficient in cancerous colon in comparison to normal colon [3] | decrease in the expression of p-glycoprotein (P-gp) ([1]; qRT-PCR and Western blot, curcumin treated colon cancer cells)
CCc1c2c(nc3ccc(OC(=O)N4CCC(N5CCCCC5)CC4)cc13)-c1cc3c(c(=O)n1C2)COC(=O)[C@]3(O)CC [Irinotecan, Irinotecan Hydrochloride] | increased | stable | decreased | 
COc1cc(/C=C/C(=O)CC(=O)/C=C/c2ccc(O)c(OC)c2)ccc1O [curcumin] | significant inhibition |  |  | about 15 fold
CC(C)NCC(O)COc1cccc2ccccc12 (stereo not drawn) [propranolol] |  | stable |  | 
